In patent US20110306597A1, “Nicotinamide Derivatives” (priority 2008, published 2011):

Molecular target: human recombinant H-PGDS (Homo sapiens, UniProt O60760)
Assay: Fluorescence Intensity h-PGDS TBA Enzyme Assay
Type: biochemical
Conditions: 1:175,000 human recombinant H-PGDS, highest inhibitor concentration typically 1 μM
In short: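 Readout is PGH2 depletion: after a 42 s reaction with 5.0 μM PGH2 and 2.5 mM glutathione (pH 8.0 Tris, 10 min inhibitor preincubation), Fe(II) converts leftover PGH2 to MDA, which forms a fluorescent TBA complex. IC50s come from 11-point, 3-fold duplicate curves, 4-parameter fit.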

Chain of human recombinant H-PGDS (O60760 whole entry): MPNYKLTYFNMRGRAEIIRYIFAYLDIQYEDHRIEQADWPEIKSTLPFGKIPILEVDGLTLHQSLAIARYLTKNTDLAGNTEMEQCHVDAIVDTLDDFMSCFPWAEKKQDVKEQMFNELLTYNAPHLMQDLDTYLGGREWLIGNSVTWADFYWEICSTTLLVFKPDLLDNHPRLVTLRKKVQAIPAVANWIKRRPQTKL

IC50 [nM] | SMILES
31.1 | O=C(NCCN1CCCC(CO)C1)c1ccc(-c2cccc(F)c2)nc1 (stereo not drawn) [Example 18, 6-(3-Fluorophenyl)-N-{2-[3-(hydroxymethyl)piperidin-1-yl]ethyl}nicotinamide]
27.2 | Cc1cc(C)n(CCCNC(=O)c2ccc(-c3cccc(F)c3)nc2)n1 [Example 131, N-[3-(3,5-Dimethyl-1H-pyrazol-1-yl)propyl]-6-(3-fluorophenyl)nicotinamide]
44.6 | Cc1noc(CCNC(=O)c2ccc(-c3cccc(F)c3)nc2)n1 [Example 181, 6-(3-Fluorophenyl)-N-[2-(3-methyl-1,2,4-oxadiazol-5-yl)ethyl]nicotinamide]
324 | COc1cccc(-c2ccc(C(=O)NCCc3nc(C)no3)cn2)c1 [Example 278, 6-(3-Methoxyphenyl)-N-[2-(3-methyl-1,2,4-oxadiazol-5-yl)ethyl]nicotinamide]
106 | COc1cccc(-c2ccc(C(=O)NC3CCN(Cc4ccc(C)cc4)C3=O)cn2)c1 (stereo not drawn) [Example 274, 6-(3-Methoxyphenyl)-N-[1-(4-methylbenzyl)-2-oxopyrrolidin-3-yl]nicotinamide]
56.4 | Cc1cccc(-c2ccc(C(=O)NCCN3CCCCC3=O)cn2)c1 [Example 224, 6-(3-Methylphenyl)-N-[2-(2-oxopiperidin-1-yl)ethyl]nicotinamide]
10.8 | COc1cccc(OCC(O)CNC(=O)c2ccc(-c3cccc(F)c3)nc2)c1 (stereo not drawn) [Example 49, 6-(3-Fluorophenyl)-N-[2-hydroxy-3-(3-methoxyphenoxy)propyl] nicotinamide]
39.4 | Cc1c[nH]c(CCNC(=O)c2ccc(-c3cccc(F)c3)nc2)n1 [Example 130, 6-(3-Fluorophenyl)-N-[2-(4-methyl-1H-imidazol-2-yl)ethyl]nicotinamide]
34.5 | O=C(NCC1(O)CCC1)c1ccc(-c2cccc(F)c2)nc1 [Example 141, 6-(3-Fuorophenyl)-N-[(1-hydroxycyclobutyl)methyl] nicotinamide]
762 | COc1cccc(-c2ccc(C(=O)NCCN3CCCC3=O)cn2)c1 [Example 300, 6-(3-methoxyphenyl)-N-[2-(2-oxopyrrolidin-1-yl)ethyl]nicotinamide]
≥ 1000 | COC(=O)[C@H](C)NC(=O)c1ccc(-c2cccc(OC)c2)nc1 [Example 340, Methyl N-{[6-(3-methoxyphenyl)pyridin-3-yl]carbonyl}alaninate]
26.9 | CN1CCc2nc(N3CCC(CNC(=O)c4ccc(-c5cccc(F)c5)nc4)CC3)ncc2C1 [Example 10, 6-(3-Fluorophenyl)-N-{[1-(6-methyl-5,6,7,8-tetrahydropyrido[4,3-d]pyrimidin-2-yl)piperidin-4-yl]methyl}nicotinamide]
≥ 1000 | COc1cccc(-c2ccc(C(=O)NCCC3CCN(C)CC3)cn2)c1 [Example 487, 6-(3-Methoxyphenyl)-N-[2-(1-methylpiperidin-4-yl)ethyl]nicotinamide]

The next lines start with the molecule.

SMILES | IC50 [nM]
Cc1cccc2c1OCCC2NC(=O)c1ccc(-c2cc(F)cc(F)c2)nc1 (stereo not drawn) [Example 533, 6-(3,5-Difluorophenyl)-N-(8-methyl-3,4-dihydro-2H-chromen-4-yl)nicotinamide] | 8.79
CCC(C)C(CO)NC(=O)c1ccc(-c2cccc(F)c2)nc1 (stereo not drawn) [Example 537, 6-(3-Fluorophenyl)-N-[1-(hydroxymethyl)-2-methylbutyl]nicotinamide] | 61.2
CCOC(=O)CC[C@@H](NC(=O)c1ccc(-c2cccc(F)c2)nc1)C(=O)OCC [Example 166, Diethyl N-{[6-(3-fluorophenyl)pyridin-3-yl]carbonyl}-D-glutamate] | 2.57
Cc1cccc(NC(=O)c2ccc(-c3ccccc3)nc2)c1C [Example 527, N-(2,3-Dimethylphenyl)-6-phenylnicotinamide] | 10.3
Cc1ccccc1CNC(=O)c1ccc(-c2ccc(F)cc2)nc1 [Example 491, 6-(4-Fluorophenyl)-N-(2-methylbenzyl)nicotinamide] | 139
O=C(N[C@@H](CO)c1ccccc1)c1ccc(-c2cccc(F)c2)nc1 [Example 78, 6-(3-Fluorophenyl)-N-[(1R)-2-hydroxy-1-phenylethyl] nicotinamide] | 45
CNS(=O)(=O)c1ccc(CNC(=O)c2ccc(-c3cccc(F)c3)nc2)cc1 [Example 424, 6-(3-Fluorophenyl)-N-{4-[(methylamino)sulfonyl]benzyl}nicotinamide] | 67.8
Cc1cccc(-c2ccc(C(=O)Nc3cccnc3)cn2)c1 [Example 488, 6-(3-Methylphenyl)-N-pyridin-3-ylnicotinamide] | 11.4
CN(C)CCOc1ccc(CNC(=O)c2cnc(-c3cccc(F)c3)c(Cl)c2)cc1 [Example 561, 5-Chloro-N-{4-[2-(dimethylamino)ethoxy]benzyl}-6-(3-fluorophenyl)nicotinamide] | 19.8
CCn1c(CCNC(=O)c2ccc(-c3ccccc3)nc2)nc2cc(C(=O)NCCOC)ccc21 [Example 391, 1-Ethyl-N-(2-methoxyethyl)-2-(2-{[(6-phenylpyridin-3-yl)carbonyl]amino}ethyl)-1H-benzimidazole-5-carboxamide] | 0.906
Cc1cc(C(F)(F)F)nc(CNC(=O)c2ccc(-c3cccc(F)c3)nc2)n1 [Example 98, 6-(3-Fluorophenyl)-N-{[4-methyl-6-(trifluoromethyl)pyrimidin-2-yl]methyl}nicotinamide] | 146
CC(C)c1noc(CNC(=O)c2ccc(-c3cccc(F)c3)nc2)n1 [Example 83, 6-(3-Fluorophenyl)-N-[(3-isopropyl-1,2,4-oxadiazol-5-yl)methyl]nicotinamide] | 72.8
Cc1cc(C(F)(F)F)nc(CCNC(=O)c2ccc(-c3cccc(F)c3)nc2)n1 [Example 124, 6-(3-Fluorophenyl)-N-{2-[4-methyl-6-(trifluoromethyl)pyrimidin-2-yl]ethyl}nicotinamide] | 18.3
Cc1cccc(-c2ccc(C(=O)NCc3cccc(S(C)(=O)=O)c3)cn2)c1 [Example 245, 6-(3-Methylphenyl)-N-[3-(methylsulfonyl)benzyl] nicotinamide] | 11.5
O=C(NCCC1CCCCO1)c1cnc(-c2cccc(F)c2)c(Cl)c1 (stereo not drawn) [Example 553, 5-Chloro-6-(3-fluorophenyl)-N-[2-(tetrahydro-2H-pyran-2-yl)ethyl]nicotinamide] | 31.8
COc1cccc(-c2ccc(C(=O)NC(=O)CC(N)c3ccc(OC)c(OC)c3)cn2)c1 (stereo not drawn) [Example 277, N-[3-Amino-3-(3,4-dimethoxyphenyl)propanoyl]-6-(3-methoxyphenyl) nicotinamide] | 274
Cc1cccc(-c2ccc(C(=O)NCCc3ccncc3)cn2)c1 [Example 240, 6-(3-Methylphenyl)-N-(2-pyridin-4-ylethyl)nicotinamide] | 10.7
COC(=O)CC[C@@H](NC(=O)c1ccc(-c2cccc(F)c2)nc1)C(=O)OC [Example 66, Dimethyl N-{[6-(3-fluorophenyl)pyridin-3-yl]carbonyl}-D-glutamate] | 95.2
COc1ccc(CCc2nnc(CNC(=O)c3ccc(-c4cccc(F)c4)nc3)[nH]2)cc1 [Example 31, 6-(3-Fluorophenyl)-N-({5-[2-(4-methoxyphenyl)ethyl]-4H-1,2,4-triazol-3-yl}methyl)nicotinamide] | 35
Cc1cc(-c2cnc(C(C)(C)C)nc2CNC(=O)c2ccc(-c3cccc(F)c3)nc2)on1 [Example 122, N-{[2-tert-Butyl-5-(3-methylisoxazol-5-yl)pyrimidin-4-yl]methyl}-6-(3-fluorophenyl)nicotinamide] | > 1000
